In PubChem BioAssay (NCI):
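These data come from cells grown in 96-well plates and exposed to compound for 48 hours at five concentrations. TGI: concentration producing complete growth inhibition.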

Assays:
Experiment in all cases: NCI-60 cell line screen, 48 h
[1] = test system: A549 NSCLC
[2] = test system: CAKI-1 renal
[3] = test system: HCC-2998 colon
[4] = test system: HOP-92 NSCLC
[5] = test system: HT29 colon
[6] = test system: NCI-H226 lung
[7] = test system: OVCAR-3 ovarian
[8] = test system: RXF 393 renal
[9] = test system: SF-295 CNS
[10] = test system: SK-MEL-28 melanoma
[11] = test system: UACC-62 melanoma
[12] = test system: HOP-62 NSCLC

SMILES	TGI [1] [µM]	TGI [2] [µM]	TGI [3] [µM]	TGI [4] [µM]	TGI [5] [µM]	TGI [6] [µM]	TGI [7] [µM]	TGI [8] [µM]	TGI [9] [µM]	TGI [10] [µM]	TGI [11] [µM]	TGI [12] [µM]
COc1cc2c(=O)cnoc2cc1O	> 100	> 100	> 100	> 100	> 100	> 100	> 100	> 100	> 100	> 100	> 100	–
Cc1csc(/N=C\c2c(O)c3ccccc3oc2=O)n1	> 100	34.1	–	89.8	> 100	> 100	> 100	–	–	–	> 100	–
O=S(=O)(/N=C(\NO)Nc1ccc(Cl)cc1)c1cccc2nsnc12	> 100	70	–	73.7	> 100	> 100	70	> 100	> 100	46.6	53.1	> 100
FC1C2=C(SC1(F)F)C1CCC2C1 (stereo unspecified)	> 100	> 100	–	> 100	> 100	> 100	> 100	> 100	> 100	–	> 100	–
COc1ccc(C2SCC(=O)N2NC(=O)c2ccc(NC(C)=O)cc2)cc1 (stereo unspecified)	> 100	–	> 100	89.2	> 100	> 100	> 100	> 100	> 100	> 100	> 100	> 100
CC1=Nc2sc3c(c2C2=NCCN12)CCCC3	–	50.6	> 100	–	36.5	31.2	66.8	61	98.7	65.4	32	> 100
CC(=O)OC1COC(Nc2nc(NCc3ccccc3)n(C)c(=O)c2N=O)C(OC(C)=O)C1OC(C)=O (stereo unspecified)	> 10	> 10	> 10	–	> 10	> 10	> 10	> 10	> 10	> 10	> 10	> 10
C=C1C(=O)O[C@H]2[C@@H](O)[C@H](C)CCC[C@]3(C)O[C@H]3CC[C@@]3(C)O[C@@H]3C[C@@H]12	18.3	13	10.9	–	12.1	14.5	10.6	7.13	15.6	8.91	8.8	14.3
O=C(N/N=C1/C(=O)c2c3ccccc3cc3cccc1c23)c1ccccc1	> 100	70.1	–	> 100	> 87.9	> 66.6	> 100	56.3	52.2	> 95.6	> 78.1	40.3
CCCCCCCCCCCCCCCCOC[C@@H](COC(c1ccccc1)(c1ccccc1)c1ccccc1)O[P+](=S)OC (stereo partly specified)	21	23.8	–	26.2	35.2	42.5	31.8	22.7	6.88	–	14.5	–
